In ChEMBL document CHEMBL1137841, “Peptidyl aldehydes as slow-binding inhibitors of dual-specificity phosphatases” (Bioorg Med Chem Lett, 2004):

Key:
[1] = Tested for effect on inhibition of DSP VH1 (dual-specificity phosphatase vaccinia open reading frame H1) and the value reported is equilibrium constant
[2] = Tested for effect on inhibition of DSP VH1 (dual-specificity phosphatase vaccinia open reading frame H1) and the value reported is overall equilibrium constant
[3] = target: T1, Dual specificity protein phosphatase 3 (Homo sapiens, UniProt P51452); assay: Tested for effect on inhibition of Dual specificity protein phosphatase 3 and the value reported is overall equilibrium constant
Target sequence in this assay (P51452 whole entry): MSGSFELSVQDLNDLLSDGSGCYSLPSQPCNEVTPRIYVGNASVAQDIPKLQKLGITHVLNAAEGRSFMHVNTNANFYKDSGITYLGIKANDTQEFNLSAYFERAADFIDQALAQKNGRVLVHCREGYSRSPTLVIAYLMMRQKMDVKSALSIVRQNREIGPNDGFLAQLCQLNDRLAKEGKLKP

[4] = Tested for effect on inhibition of DSP VH1 (dual-specificity phosphatase vaccinia open reading frame H1)
[5] = Tested for effect on inhibition of protein tyrosine phosphatase 1B
[6] = target: T1, Dual specificity protein phosphatase 3; assay: Tested for effect on inhibition of Dual specificity protein phosphatase 3 at a dose of 2.5 mM
Target sequence in this assay (P51452 whole entry, looked up): as the sequence (P51452 whole entry) above

Structure (SMILES)	Ki [1] [µM]	Ki [2] [µM]	Ki [3] [µM]	IC50 [4] [µM]	IC50 [5] [µM]	inhibition [6] [%]
NC(=O)[C@H](CCC(=O)O)NC(=O)[C@H](CCC(=O)O)NC(=O)CNC(=O)c1ccc(/C=C/C=O)cc1	190	18	290	–	–	–
O=C/C=C/c1ccc(C(=O)O)cc1	–	–	–	~1000	970	40
